Broadly, the IC50 is the concentration that gives 50% inhibition.

For the assay, the target named is recombinant human integrin αvβ6 (Homo sapiens (Human), UniProt P06756+P18564). As to the kind of experiment: Solid phase integrin αvβ6 binding assay. The note with it: plate-coated integrin; recombinant TGFβ1 LAP 0.67 ug/ml as ligand; 2 hours at 25° C.; read-out: αvβ6 Inhibition IC50 (nM) - range. Here is the method: Example B1—Solid Phase Integrin αvβ6 Binding Assay
recombinant human integrin αvβ6, sequence (P06756 31-992): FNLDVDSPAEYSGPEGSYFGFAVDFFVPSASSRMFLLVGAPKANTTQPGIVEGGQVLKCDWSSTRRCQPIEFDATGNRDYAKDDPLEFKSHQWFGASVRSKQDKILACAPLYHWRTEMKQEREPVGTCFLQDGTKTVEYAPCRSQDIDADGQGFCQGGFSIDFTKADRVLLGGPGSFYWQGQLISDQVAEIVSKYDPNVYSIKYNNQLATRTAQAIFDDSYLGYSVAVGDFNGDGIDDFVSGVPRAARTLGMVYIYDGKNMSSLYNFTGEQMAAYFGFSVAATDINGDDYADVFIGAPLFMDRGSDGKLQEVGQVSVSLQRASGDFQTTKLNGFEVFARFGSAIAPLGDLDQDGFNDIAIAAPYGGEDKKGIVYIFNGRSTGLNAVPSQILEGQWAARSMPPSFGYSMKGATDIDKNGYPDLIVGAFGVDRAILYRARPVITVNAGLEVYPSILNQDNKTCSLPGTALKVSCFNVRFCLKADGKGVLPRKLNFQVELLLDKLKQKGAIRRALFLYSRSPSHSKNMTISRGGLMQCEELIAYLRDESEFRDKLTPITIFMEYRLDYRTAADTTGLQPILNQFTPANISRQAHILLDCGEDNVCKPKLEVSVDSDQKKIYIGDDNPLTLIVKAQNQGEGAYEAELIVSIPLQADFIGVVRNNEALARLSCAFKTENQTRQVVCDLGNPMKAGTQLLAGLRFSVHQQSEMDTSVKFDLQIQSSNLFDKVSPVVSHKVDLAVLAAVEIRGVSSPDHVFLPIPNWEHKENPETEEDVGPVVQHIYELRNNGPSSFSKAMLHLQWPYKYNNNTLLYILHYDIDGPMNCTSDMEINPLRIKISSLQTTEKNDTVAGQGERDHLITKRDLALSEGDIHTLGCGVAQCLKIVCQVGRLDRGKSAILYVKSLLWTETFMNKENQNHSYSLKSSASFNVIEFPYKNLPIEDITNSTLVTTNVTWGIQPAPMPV
recombinant human integrin αvβ6, sequence (P18564 22-707): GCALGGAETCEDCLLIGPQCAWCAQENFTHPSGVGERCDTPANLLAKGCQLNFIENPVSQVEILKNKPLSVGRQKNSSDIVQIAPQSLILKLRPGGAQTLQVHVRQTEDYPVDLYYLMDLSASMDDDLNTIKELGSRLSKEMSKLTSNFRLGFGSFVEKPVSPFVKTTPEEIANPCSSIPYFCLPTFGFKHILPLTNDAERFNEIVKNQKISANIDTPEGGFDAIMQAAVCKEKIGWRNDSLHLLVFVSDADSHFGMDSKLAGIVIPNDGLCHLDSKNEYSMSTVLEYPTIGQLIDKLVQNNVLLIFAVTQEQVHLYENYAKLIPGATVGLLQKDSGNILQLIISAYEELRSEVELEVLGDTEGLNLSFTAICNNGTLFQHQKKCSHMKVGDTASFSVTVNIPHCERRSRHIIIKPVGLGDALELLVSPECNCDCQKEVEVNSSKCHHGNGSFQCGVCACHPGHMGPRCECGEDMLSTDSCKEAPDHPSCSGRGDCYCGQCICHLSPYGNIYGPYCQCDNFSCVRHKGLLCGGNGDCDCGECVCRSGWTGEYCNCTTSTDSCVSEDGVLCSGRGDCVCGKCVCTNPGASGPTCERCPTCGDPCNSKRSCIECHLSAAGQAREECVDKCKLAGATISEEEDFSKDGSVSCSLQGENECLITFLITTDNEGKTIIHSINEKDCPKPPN
Microplates were coated with recombinant human integrin αvβ6 (2 ug/ml) in PBS (100 ul/well 25° C., overnight). The coating solution was removed, washed with wash buffer (0.05% Tween 20; 0.5 mM MnCl2; in 1×TBS). Plate was blocked with 200 ul/well of Block Buffer (1% BSA; 5% sucrose; 0.5 mM MnCl2; in 1×TBS) at 37° C. for 2 h. Dilutions of testing compounds and recombinant TGFβ1 LAP (0.67 ug/ml) in binding buffer (0.05% BSA; 2.5% sucrose; 0.5 mM MnCl2; in 1×TBS) were added. The plate was incubated for 2 hours at 25° C., washed, and incubated for 1 hour with Biotin-Anti-hLAP. Bound antibody was detected by peroxidase-conjugated streptavidin. The IC50 values for testing compounds were calculated by a four-parameter logistic regression.
The compounds tested were compound samples prepared according to procedures described in the Synthetic Examples section, with the stereochemical purity as indicated in the Examples indicated.
Take `Cn1nc(-c2ccccc2)c2cccc(C(=O)N[C@@H](CCN3CC[C@@H](CCc4ccc5c(n4)NCCC5)C3)C(=O)O)c21` [Compound 82]: the IC50 was less than 50 nM.
In the case of `O=C(N[C@H](CCN1CC[C@@H](CCc2ccc3c(n2)NCCC3)C1)C(=O)O)c1cccc(-c2ccccc2)c1` [Compound 83], the IC50 is less than 50 nM.
In the case of `O=C(N[C@H](CCN1CC[C@@H](CCc2ccc3c(n2)NCCC3)C1)C(=O)O)c1cccc(-c2cncs2)c1` [Compound 84] it was less than 50 nM; in that of `O=C(N[C@H](CCN1CC[C@@H](CCc2ccc3c(n2)NCCC3)C1)C(=O)O)c1cccc(-c2cscn2)c1` [Compound 85], less than 50 nM; in that of `Cn1nccc1-c1cccc(C(=O)N[C@H](CCN2CC[C@@H](CCc3ccc4c(n3)NCCC4)C2)C(=O)O)c1` [Compound 86], less than 50 nM.
With `Cn1cc(-c2cccc(C(=O)N[C@H](CCN3CC[C@@H](CCc4ccc5c(n4)NCCC5)C3)C(=O)O)c2)cn1` [Compound 87], the IC50 is less than 50 nM.
In the case of `O=C(N[C@H](CCN1CC[C@@H](CCc2ccc3c(n2)NCCC3)C1)C(=O)O)c1cccc(-c2ncco2)c1` [Compound 88] it was less than 50 nM.
With `O=C(O)[C@H](CCN1CC[C@@H](CCc2ccc3c(n2)NCCC3)C1)NC(=O)[C@@H]1COCCN1Cc1ccccc1` [Compound 89], the IC50 is less than 50 nM.
With `O=C(O)[C@H](CCN1CC[C@@H](CCc2ccc3c(n2)NCCC3)C1)NC(=O)[C@@H]1CCCN1Cc1ncccn1` [Compound 90], the IC50 was less than 50 nM.
Turning to `O=C(O)[C@H](CCN1CC[C@@H](CCc2ccc3c(n2)NCCC3)C1)NC(=O)[C@@H]1CCCN1CC1CC1` [Compound 91], the IC50 was 50 to 250 nM.
Regarding `O=C(O)[C@H](CCN1CC[C@@H](CCc2ccc3c(n2)NCCC3)C1)NC(=O)[C@@H]1CCCN1CC1CCC1` [Compound 92], the IC50 is less than 50 nM.
In the case of `O=C(O)[C@H](CCN1CC[C@@H](CCc2ccc3c(n2)NCCC3)C1)NC(=O)[C@@H]1CCCCN1Cc1ccccc1` [Compound 93], the 50% inhibitory concentration (IC50) was 50 to 250 nM.
The same measure for `CCC(CC)C(=O)N[C@@H](CCN1CCC[C@@](F)(CCc2ccc3c(n2)NCCC3)C1)C(=O)O` [Compound 94]: 50 to 250 nM; for `CCC(CC)C(=O)N[C@@H](CCN1CC[C@@H](CCc2ccc3c(n2)NCCC3)C1)C(=O)O` [Compound 95]: less than 50 nM; for `O=C(N[C@@H](CCN1CCC[C@@](F)(CCc2ccc3c(n2)NCCC3)C1)C(=O)O)c1cccc(N2CCOCC2)c1` [Compound 96]: 50 to 250 nM.
In the case of `O=C(N[C@@H](CCN1CCC[C@@](F)(CCc2ccc3c(n2)NCCC3)C1)C(=O)O)c1cc(F)cc(F)c1` [Compound 97], the IC50 lay in the range of 50 to 250 nM.
In the case of `Cc1nn(C)cc1-c1nn(C)c2c(C(=O)N[C@@H](CCN3CC[C@@H](CCc4ccc5c(n4)NCCC5)C3)C(=O)O)cccc12` [Compound 98] it was 250 to 1000 nM; in that of `O=C(O)[C@H](CCN1CC[C@@H](CCc2ccc3c(n2)NCCC3)C1)NC(=O)[C@@H]1CCCN1Cc1cccnc1` [Compound 99], less than 50 nM; in that of `COCCOc1cccc(C(=O)N[C@@H](CCN2CCC[C@@](F)(CCc3ccc4c(n3)NCCC4)C2)C(=O)O)c1` [Compound 100], 50 to 250 nM.
As to `O=C(N[C@@H](CCN1CCC[C@@](F)(CCc2ccc3c(n2)NCCC3)C1)C(=O)O)c1c(Cl)cccc1Cl` [Compound 101], the IC50 is 250 to 1000 nM.
In the case of `Cn1cc(-c2nn(C)c3c(C(=O)N[C@@H](CCN4CC[C@@H](CCc5ccc6c(n5)NCCC6)C4)C(=O)O)cccc23)cn1` [Compound 102], the IC50 was 250 to 1000 nM.
As to `O=C(N[C@@H](CCN1CCC[C@](F)(CCc2ccc3c(n2)NCCC3)C1)C(=O)O)c1cccc(F)c1Cl` [Compound 103], the IC50 was less than 50 nM.
For `O=C(N[C@@H](CCN1CCC[C@](F)(CCc2ccc3c(n2)NCCC3)C1)C(=O)O)c1cc(F)cc(F)c1` [Compound 104], the IC50 was less than 50 nM.
Consider `O=C(N[C@@H](CCN1CCC[C@@](F)(CCc2ccc3c(n2)NCCC3)C1)C(=O)O)c1cc(F)cc(C(F)(F)F)c1` [Compound 105], for which the IC50 lay in the range of 50 to 250 nM.
